The values below come from US7872014B2, “Anaplastic lymphoma kinase modulators and methods of use” (Exelixis, Inc., priority 2003, dated 2011).

Some results are limits rather than exact numbers.

The target of this assay is T1, ALK (baculovirus expressed human ALK kinase domain F1098-K1410) (Homo sapiens, UniProt Q9UM73).
T1 construct: baculovirus expressed human ALK kinase domain F1098-K1410; made in house
T1 sequence (Q9UM73 1098-1410): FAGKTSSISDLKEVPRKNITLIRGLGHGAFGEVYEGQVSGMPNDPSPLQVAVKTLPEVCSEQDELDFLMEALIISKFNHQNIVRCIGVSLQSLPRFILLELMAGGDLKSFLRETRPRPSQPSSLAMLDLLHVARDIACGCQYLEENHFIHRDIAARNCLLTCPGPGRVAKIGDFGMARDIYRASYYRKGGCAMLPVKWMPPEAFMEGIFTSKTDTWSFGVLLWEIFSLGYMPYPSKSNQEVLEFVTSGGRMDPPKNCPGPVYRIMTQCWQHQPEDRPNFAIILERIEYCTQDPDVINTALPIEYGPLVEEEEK
Nature of the assay: Luciferase-Coupled Chemiluminescent Kinase assay (LCCA), ALK biochemical activity. Particulars: inhibition of ALK; mean values; 1 μM ATP, 4 μM poly-AEKY, 12 nM ALK, 2 hours ambient temperature. Here is the method:
ALK biochemical activity was assessed using a Luciferase-Coupled Chemiluminescent Kinase assay (LCCA) format in which kinase activity was measured as the percent ATP remaining following the kinase reaction. ATP remaining after the kinase reaction was detected by luciferase-luciferin-coupled chemiluminescence.
The reaction was initiated by mixing test compounds, 1 μM ATP, 4 μM poly-AEKY and 12 nM ALK (baculovirus expressed human ALK kinase domain F1098-K1410) in a 20 μL assay buffer ([…] pH 7.5, 10 mM MgCl2, 0.02% Triton X-100, 100 mM DTT, 2 mM MnCl2). The mixture was incubated at ambient temperature for 2 hours after which 20 μL luciferase-luciferin mix was added and the chemiluminescent signal read using a Wallac Victor^2 reader. The luciferase-luciferin mix consists of 50 mM HEPES, pH 7.8, 8.5 μg/mL oxalic acid (pH 7.8), 5 (or 50) mM DTT, 0.4% Triton X-100, 0.25 mg/mL coenzyme A, 63 μM AMP, 28 μg/mL luciferin and 40,000 units of light/mL luciferase.
Consumption of ATP by ALK can thus be quantified and utilized as a measure of inhibition of ALK activity by compounds described herein. By employing serial dilutions of compounds to be tested, the ability of test compounds to inhibit ALK activity can be determined.
As usually defined, the IC50 is the point on the concentration scale where inhibition reaches its midpoint. For `COc1cc2c(-c3ccc(O)c(Cl)c3)nc3[nH]nc(C)c3c2cc1OCC1CCN(C(C)=O)CC1` [Example 106, 4-[8-{[(1-acetylpiperidin-4-yl)methyl]oxy}-1-methyl-7-(methyloxy)-3H-pyrazolo[3,4-c]isoquinolin-5-yl]-2-chlorophenol], the IC50 is ≤ 0.099 µM.

With `COc1ccc2c(-c3ccc(O)c(Br)c3)nc3[nH]nc(C)c3c2c1OCC1CCN(C(C)=O)CC1` [Example 107, 4-[9-{[(1-acetylpiperidin-4-yl)methyl]oxy}-1-methyl-8-(methyloxy)-3H-pyrazolo[3,4-c]isoquinolin-5-yl]-2-bromophenol], the IC50 was ≤ 0.099 µM.

`COCCOc1ccc2c(-c3ccc(O)c(Cl)c3)nc3[nH]nc(C)c3c2c1OC` [Example 108, 2-chloro-4-(1-methyl-9-(methyloxy)-8-{[2-(methyloxy)ethyl]oxy}-3H-pyrazolo[3,4-c]isoquinolin-5-yl)phenol]: the IC50 was ≤ 0.099 µM.

On to `COc1cc2c(cc1F)c(-c1ccc(O)cc1)nc1[nH]nc(C)c12` [Example 109, 4-[7-fluoro-1-methyl-8-(methyloxy)-3H-pyrazolo[3,4-c]isoquinolin-5-yl]phenol], for which the IC50 lay in the range of 0.1 to 0.999 µM.

For the molecule `COCCOc1ccc2c(-c3ccc(O)c(Cl)c3)nc3[nH]nc(C)c3c2c1OCCOC` [Example 110, 2-chloro-4-(1-methyl-8,9-bis{[2-(methyloxy)ethyl]oxy}-3H-pyrazolo[3,4-c]isoquinolin-5-yl)phenol], the IC50 was ≤ 0.099 µM.

For the molecule `COCCOc1ccc2c(-c3ccc(O)c(Br)c3)nc3[nH]nc(C)c3c2c1OCCOC` [Example 111, 2-bromo-4-(1-methyl-8,9-bis{[2-(methyloxy)ethyl]oxy}-3H-pyrazolo[3,4-c]isoquinolin-5-yl)phenol], the IC50 is ≤ 0.099 µM.

For `COCCOc1c(OC)ccc2c(-c3ccc(O)c(Cl)c3)nc3[nH]nc(C)c3c12` [Example 112, 2-chloro-4-(1-methyl-8-(methyloxy)-9-{[2-(methyloxy)ethyl]oxy}-3H-pyrazolo[3,4-c]isoquinolin-5-yl)phenol], the half-inhibitory concentration (IC50) is ≤ 0.099 µM.

On to `COCCOc1c(OC)ccc2c(-c3ccc(O)c(Br)c3)nc3[nH]nc(C)c3c12` [Example 113, 2-bromo-4-(1-methyl-8-(methyloxy)-9-{[2-(methyloxy)ethyl]oxy}-3H-pyrazolo[3,4-c]isoquinolin-5-yl)phenol], for which the concentration for half-maximal inhibition (IC50) is ≤ 0.099 µM.

On to `COc1cc2c(-c3ccc(O)cc3F)nc3[nH]nc(C)c3c2cc1OC` [Example 114, 3-fluoro-4-[1-methyl-7,8-bis(methyloxy)-3H-pyrazolo[3,4-c]isoquinolin-5-yl]phenol], for which the IC50 was ≤ 0.099 µM.

As to `COCCOc1cc2c(cc1OC)c(-c1ccc(O)c(Cl)c1)nc1[nH]nc(C)c12` [Example 115, 2-chloro-4-(1-methyl-7-(methyloxy)-8-{[2-(methyloxy)ethyl]oxy}-3H-pyrazolo[3,4-c]isoquinolin-5-yl)phenol], the IC50 was ≤ 0.099 µM.

`COCCOc1cc2c(cc1OC)c(-c1ccc(O)c(Br)c1)nc1[nH]nc(C)c12` [Example 116, 2-bromo-4-(1-methyl-7-(methyloxy)-8-{[2-(methyloxy)ethyl]oxy}-3H-pyrazolo[3,4-c]isoquinolin-5-yl)phenol]: the half-maximal inhibitory concentration (IC50) is ≤ 0.099 µM.

In turn, `COCCOc1cc2c(-c3ccc(O)c(Cl)c3)nc3[nH]nc(C)c3c2cc1OCCOC` [Example 117, 2-chloro-4-(1-methyl-7,8-bis{[2-(methyloxy)ethyl]oxy}-3H-pyrazolo[3,4-c]isoquinolin-5-yl)phenol] yielded an IC50 of 0.1 to 0.999 µM.

With `COCCOc1cc2c(-c3ccc(O)c(Br)c3)nc3[nH]nc(C)c3c2cc1OCCOC` [Example 118, 2-bromo-4-(1-methyl-7,8-bis{[2-(methyloxy)ethyl]oxy}-3H-pyrazolo[3,4-c]isoquinolin-5-yl)phenol], the IC50 fell in the range of 0.1 to 0.999 µM.

Consider `COCCOc1cc(F)c2c(-c3ccc(O)cc3)nc3[nH]nc(C)c3c2c1F` [Example 120, 4-(6,9-difluoro-1-methyl-8-{[2-(methyloxy)ethyl]oxy}-3H-pyrazolo[3,4-c]isoquinolin-5-yl)phenol], for which the half-inhibitory concentration (IC50) was ≤ 0.099 µM.

As for `COc1cc2c(-c3cc(Cl)c(O)cc3F)nc3[nH]nc(C)c3c2cc1OC` [Example 121, 2-chloro-5-fluoro-4-[1-methyl-7,8-bis(methyloxy)-3H-pyrazolo[3,4-c]isoquinolin-5-yl]phenol], the IC50 is ≤ 0.099 µM.

Regarding `COc1cc2c(-c3cc(Br)c(O)cc3F)nc3[nH]nc(C)c3c2cc1OC` [Example 122, 2-bromo-5-fluoro-4-[1-methyl-7,8-bis(methyloxy)-3H-pyrazolo[3,4-c]isoquinolin-5-yl]phenol], the IC50 is ≤ 0.099 µM.

For `COc1cc2c(-c3ccc(O)cc3)cc3[nH]nc(C)c3c2c(F)c1OC` [Example 123, 4-[9-fluoro-1-methyl-7,8-bis(methyloxy)-3H-benzo[e]indazol-5-yl]phenol], the IC50 was in the range of 0.1 to 0.999 µM.

Turning to `COCCOc1cc2c(cc1OC)c(-c1ccc(O)cc1F)nc1[nH]nc(C)c12` [Example 125, 3-fluoro-4-(1-methyl-7-(methyloxy)-8-{[2-(methyloxy)ethyl]oxy}-3H-pyrazolo[3,4-c]isoquinolin-5-yl)phenol], the IC50 was ≤ 0.099 µM.

As to `COCCOc1cc(F)c2c(-c3ccc(O)cc3F)nc3[nH]nc(C)c3c2c1F` [Example 126, 4-(6,9-difluoro-1-methyl-8-{[2-(methyloxy)ethyl]oxy}-3H-pyrazolo[3,4-c]isoquinolin-5-yl)-3-fluorophenol], the IC50 is ≤ 0.099 µM.

With `COCCOc1cc(F)c2c(-c3ccc(O)c(Cl)c3)nc3[nH]nc(C)c3c2c1F` [Example 127, 2-chloro-4-(6,9-difluoro-1-methyl-8-{[2-(methyloxy)ethyl]oxy}-3H-pyrazolo[3,4-c]isoquinolin-5-yl)phenol], the IC50 was ≤ 0.099 µM.

For the molecule `CCOc1cc2c(cc1OC)c(-c1ccc(O)c(Cl)c1)nc1[nH]nc(C)c12` [Example 128, 2-chloro-4-[8-(ethyloxy)-1-methyl-7-(methyloxy)-3H-pyrazolo[3,4-c]isoquinolin-5-yl]phenol], the IC50 was in the range of 0.1 to 0.999 µM.

Molecule `COc1cc2c(c(-c3ccc(O)c(Cl)c3)nc3[nH]nc(C)c32)c(Cl)c1OC` [Example 129, 2-chloro-4-[6-chloro-1-methyl-7,8-bis(methyloxy)-3H-pyrazolo[3,4-c]isoquinolin-5-yl]phenol] came in with an IC50 of 0.1 to 0.999 µM.

With `COCCOc1ccc2c(-c3ccc(O)cc3F)nc3[nH]nc(C)c3c2c1OC` [Example 130, 3-fluoro-4-(1-methyl-9-(methyloxy)-8-{[2-(methyloxy)ethyl]oxy}-3H-pyrazolo[3,4-c]isoquinolin-5-yl)phenol], the IC50 was ≤ 0.099 µM.

As to `COCCOc1cc2c(cc1C)c(-c1ccc(O)c(Cl)c1)nc1[nH]nc(C)c12` [Example 131, 2-chloro-4-(1,7-dimethyl-8-{[2-(methyloxy)ethyl]oxy}-3H-pyrazolo[3,4-c]isoquinolin-5-yl)phenol], the IC50 is ≤ 0.099 µM.

As to `COCCOc1cc2c(c(-c3ccc(O)cc3F)nc3[nH]nc(C)c32)c(F)c1OC` [Example 132, 3-fluoro-4-(6-fluoro-1-methyl-7-(methyloxy)-8-{[2-(methyloxy)ethyl]oxy}-3H-pyrazolo[3,4-c]isoquinolin-5-yl)phenol], the IC50 was ≤ 0.099 µM.

Take `COc1cc2c(-c3ccc(O)c(Cl)c3)nc3[nH]nc(C)c3c2cc1OC(C)C` [Example 133, 2-chloro-4-[1-methyl-8-[(1-methylethyl)oxy]-7-(methyloxy)-3H-pyrazolo[3,4-c]isoquinolin-5-yl]phenol]: the IC50 was ≤ 0.099 µM.

In turn, `COc1cc2c(-c3ccc(O)c(Cl)c3)nc3[nH]nc(C)c3c2cc1OCC(C)C` [Example 134, 2-chloro-4-{1-methyl-7-(methyloxy)-8-[(2-methylpropyl)oxy]-3H-pyrazolo[3,4-c]isoquinolin-5-yl}phenol] had an IC50 of 0.1 to 0.999 µM.

`COCCOc1cc2c(cc1OC)c(-c1cc(Br)c(O)cc1F)nc1[nH]nc(C)c12` [Example 135, 2-bromo-5-fluoro-4-(1-methyl-7-(methyloxy)-8-{[2-(methyloxy)ethyl]oxy}-3H-pyrazolo[3,4-c]isoquinolin-5-yl)phenol]: the concentration for half-maximal inhibition (IC50) was ≤ 0.099 µM.

`COc1cc2c(-c3ccc(O)c(Cl)c3)nc3[nH]ncc3c2cc1OC` [Example 136, 4-[7,8-bis(methyloxy)-3H-pyrazolo[3,4-c]isoquinolin-5-yl]-2-chlorophenol] gave an IC50 of 0.1 to 0.999 µM.

`COc1cc2c(-c3ccc(O)c(Cl)c3)nc3[nH]nc(C(F)(F)F)c3c2cc1OC` [Example 137, 4-[7,8-bis(methyloxy)-1-(trifluoromethyl)-3H-pyrazolo[3,4-c]isoquinolin-5-yl]-2-chlorophenol] yielded an IC50 of 0.1 to 0.999 µM.

On to `COCc1n[nH]c2nc(-c3ccc(O)c(Cl)c3)c3cc(OC)c(OC)cc3c12` [Example 138, 4-{7,8-bis(methyloxy)-1-[(methyloxy)methyl]-3H-pyrazolo[3,4-c]isoquinolin-5-yl}-2-chlorophenol], for which the IC50 was in the range of 0.1 to 0.999 µM.

As for `Cc1n[nH]c2nc(-c3ccc(O)c(Cl)c3)c3cc4c(cc3c12)OCO4` [Example 139, 2-chloro-4-(1-methyl-3H-[1,3]dioxolo[4,5-g]pyrazolo[3,4-c]isoquinolin-5-yl)phenol], the IC50 is ≤ 0.099 µM.
